Measured values reported in patent US11866720B2, “Transgenic or non-transgenic plants with mutated protoporphyrinogen oxidase having increased tolerance to herbicides” (priority 2013, dated 2024).
Several values for one entry are separate records, joined by “and”; a condition that tells them apart may be missing. Identical values can stand only once. Like-named read-outs stand apart in the source and are kept apart here.

Key:
[1] = test system: transgenic Arabidopsis thaliana plants expressing wildtype or mutated PPO; test: Germination / growth inhibition assay of transgenic Arabidopsis T2 seeds in 48-well plates; conditions: growth inhibition seven to ten days after seeding
[2] = test system: transgenic soybean expressing mutated PPO; test: Soybean segregating T1 individuals, greenhouse spray test (injury 0-9); format: in vivo, Glycine max; conditions: Saflufenacil 150 g ai/ha, 1 week after treatment
[3] = test system: transgenic soybean expressing mutated PPO; test: Soybean T0 cuttings, greenhouse spray test (injury score 0-9, 1 week after treatment); format: in vivo, Glycine max; conditions: for Injury score from 0-9: soybean T0 cuttings, 1 week after treatment
Text: For testing of T0 plants, cuttings can be used. In the case of soybean plants, an optimal shoot for cutting is about 7.5 to 10 cm tall, with at least two nodes present. Each cutting is taken from the original transformant (mother plant) and dipped into rooting hormone powder (indole-3-butyric acid, IBA). The cutting is then placed in oasis wedges inside a bio-dome. Wild type cuttings are also taken simultaneously to serve as controls. The cuttings are kept in the bio-dome for 5-7 days and then transplanted to pots and then acclimated in the growth chamber for two more days. Subsequently, the cuttings are transferred to the greenhouse, acclimated for approximately 4 days, and then subjected to spray tests as indicated. Depending on the species, the plants are kept at 10-25° C. or 20-35° C. The test period extends over 3 weeks. During this time, the plants are tended and their response to the individual treatments is evaluated. Herbicide injury evaluations are taken at 2 and 3 weeks after treatment. Plant injury is rated on a scale of 0% to 100%, 0% being no injury and 100% being complete death.
Soybean cv Jake was transformed as previously described by Siminszky et al., Phytochem Rev. 5:445-458 (2006). After regeneration, transformants were transplanted to soil in small pots, placed in growth chambers (16 hr day/8 hr night; 25° C. day/23° C. night; 65% relative humidity; 130-150 microE m-2 s-1) and subsequently tested for the presence of the T-DNA via Taqman analysis. After a few weeks, healthy, transgenic positive, single copy events were transplanted to larger pots and allowed to grow in the growth chamber. An optimal shoot for cutting was about 3-4 inches tall, with at least two nodes present. Each cutting was taken from the original transformant (mother plant) and dipped into rooting hormone powder (indole-3-butyric acid, IBA). The cutting was then placed in oasis wedges inside a bio-dome. The mother plant was taken to maturity in the greenhouse and harvested for seed. Wild type cuttings were also taken simultaneously to serve as negative controls. The cuttings were kept in the bio-dome for 5-7 days and then transplanted to 3 inch pots and then acclimated in the growth chamber for two more days. […] Herbicide injury evaluations were taken at 2, 7, 14 and 21 days after treatment. Results are shown in Tables 11a-11i, and FIGS. 5, 6, and 7.
The following gives a definition of the injury scores measured above: […]

[4] = test system: transgenic soybean expressing mutated PPO; format: in vivo, Glycine max; conditions: T1 soybean, field

CC(C)N(C)S(=O)(=O)NC(=O)c1cc(-n2c(=O)cc(C(F)(F)F)n(C)c2=O)c(F)cc1Cl [Saflufenacil, saflufenacil]
Relative tolerance rate as compared to a non-transgenic Arabidopsis plant (non-transgenic = 1.0) ([1]; transgenic Arabidopsis AMATU_PPO2_F420I): 80
Relative tolerance rate as compared to a non-transgenic Arabidopsis plant (non-transgenic = 1.0) ([1]; transgenic Arabidopsis AMATU_PPO2_F420L): 192
Relative tolerance rate as compared to a non-transgenic Arabidopsis plant (non-transgenic = 1.0) ([1]; transgenic Arabidopsis AMATU_PPO2_F420M): 168
Relative tolerance rate as compared to a non-transgenic Arabidopsis plant (non-transgenic = 1.0) ([1]; transgenic Arabidopsis AMATU_PPO2_R128A_F420I): 1200
Relative tolerance rate as compared to a non-transgenic Arabidopsis plant (non-transgenic = 1.0) ([1]; transgenic Arabidopsis AMATU_PPO2_R128A_F420L): 1200
Relative tolerance rate as compared to a non-transgenic Arabidopsis plant (non-transgenic = 1.0) ([1]; transgenic Arabidopsis AMATU_PPO2_R128A_F420M): 1160
Relative tolerance rate as compared to a non-transgenic Arabidopsis plant (non-transgenic = 1.0) ([1]; transgenic Arabidopsis AMATU_PPO2_R128L): 160
Relative tolerance rate as compared to a non-transgenic Arabidopsis plant (non-transgenic = 1.0) ([1]; transgenic Arabidopsis AMATU_PPO2_dG210): 100
Relative tolerance rate as compared to a non-transgenic Arabidopsis plant (non-transgenic = 1.0) ([1]; transgenic Arabidopsis AMATU_PPO2_dG210_R128L): 1200
Relative tolerance rate as compared to a non-transgenic Arabidopsis plant (non-transgenic = 1.0) ([1]; transgenic Arabidopsis AMATU_PPO2_wt): 10
injury (0-9 point scale) ([2]; SDS10791 AmtuPPX2L R128A_F420I): 1 (2×) and 2 and 0 and 9 (4×)
injury (0-9 point scale) ([2]; SDS-10642 AmtuPPX2L R128A_F420L): 0 (6×) and 1 (2×)
injury (0-9 point scale) ([2]; SDS-10648 AmtuPPX2L R128A_F420I): 3 and 4 (3×) and 5 (3×) and 6
injury (0-9 point scale) ([2]; SDS-10652 AmtuPPX2L L397D_F420V): 3 (3×) and 5 (2×) and 4 (2×) and 6
injury (0-9 point scale) ([2]; SDS-10787 AmtuPPX2L R128A_F420L): 6 and 5 and 4 (4×) and 0 and 9
injury (0-9 point scale) ([2]; SDS-10985 AmtuPPX2L R128A_F420M): 0 (3×) and 1 (2×) and 3 and 2
injury (0-9 point scale) ([2]; SDS-10990 AmtuPPX2L R128A_F420M): 3 (4×) and 4 and 9 and 0 and 1
injury (0-9 point scale) ([2]; SDS-11034 AmtuPPX2L R128A_F420V): 0 (5×) and 5 and 1 and 2
injury (0-9 point scale) ([2]; wild type): 9
injury score 1 WAT ([3]; Soy T0 AmtuPPX2L_R128L_F420V event 1, greenhouse, 100 g ai/ha): 4
injury score 1 WAT ([3]; Soy T0 AmtuPPX2L_R128L_F420V event 1, greenhouse, 200 g ai/ha): 6
injury score 1 WAT ([3]; Soy T0 AmtuPPX2L_R128L_F420V event 2, greenhouse, 100 g ai/ha): 1
injury score 1 WAT ([3]; Soy T0 AmtuPPX2L_R128L_F420V event 2, greenhouse, 200 g ai/ha): 2
Injury score from 0-9 ([3]; AmtuPPX2L (10 events), Kixor 12.5 + 1% MSO): 2
Injury score from 0-9 ([3]; AmtuPPX2L (10 events), Kixor 25 + 1% MSO): 4
Injury score from 0-9 ([3]; AmtuPPX2L (10 events), Kixor 50 + 1% MSO): 7
Injury score from 0-9 ([3]; AmtuPPX2L_F420L (7 events), Kixor 12.5 + 1% MSO): 1
Injury score from 0-9 ([3]; AmtuPPX2L_F420L (7 events), Kixor 25 + 1% MSO): 0
Injury score from 0-9 ([3]; AmtuPPX2L_F420L (7 events), Kixor 50 + 1% MSO): 0
Injury score from 0-9 ([3]; AmtuPPX2L_F420M (8 events), Kixor 25 + 1% MSO): 0
Injury score from 0-9 ([3]; AmtuPPX2L_F420M (8 events), Kixor 50 + 1% MSO): 3
Injury score from 0-9 ([3]; AmtuPPX2L_F420M (8 events), Kixor 100 + 1% MSO): 3
Injury score from 0-9 ([3]; AmtuPPX2L_R128A_F420I (9 events), Kixor 200 + 1% MSO): 1
Injury score from 0-9 ([3]; AmtuPPX2L_R128A_F420L (6 events), Kixor 25 + 1% MSO): 0
Injury score from 0-9 ([3]; AmtuPPX2L_R128A_F420L (6 events), Kixor 50 + 1% MSO): 1
Injury score from 0-9 ([3]; AmtuPPX2L_R128A_F420L (6 events), Kixor 100 + 1% MSO): 1
Injury score from 0-9 ([3]; AmtuPPX2L_R128A_F420M (7 events), Kixor 100 + 1% MSO): 2
Injury score from 0-9 ([3]; AmtuPPX2L_R128A_F420M (7 events), Kixor 200 + 1% MSO): 2
Injury score from 0-9 ([3]; AmtuPPX2L_R128A_F420V (14 events), Kixor 100 + 1% MSO): 2
Injury score from 0-9 ([3]; AmtuPPX2L_R128A_F420V (14 events), Kixor 200 + 1% MSO): 2
Injury score from 0-9 ([3]; AmtuPPX2L_dG210 (13 events), Kixor 25 + 1% MSO): 1
Injury score from 0-9 ([3]; AmtuPPX2L_dG210 (13 events), Kixor 50 + 1% MSO): 2
Injury score from 0-9 ([3]; AmtuPPX2L_dG210 (13 events), Kixor 100 + 1% MSO): 1
Injury score from 0-9 ([3]; AmtuPPX2L_dG210_R128L (12 events), Kixor 25 + 1% MSO): 0
Injury score from 0-9 ([3]; AmtuPPX2L_dG210_R128L (12 events), Kixor 50 + 1% MSO): 1
Injury score from 0-9 ([3]; AmtuPPX2L_dG210_R128L (12 events), Kixor 100 + 1% MSO): 1
Injury score from 0-9 ([3]; NitabPPX2 (13 events), Kixor 12.5 + 1% MSO): 3
Injury score from 0-9 ([3]; NitabPPX2 (13 events), Kixor 25 + 1% MSO): 6
Injury score from 0-9 ([3]; NitabPPX2 (13 events), Kixor 50 + 1% MSO): 9
Injury score from 0-9 ([3]; NitabPPX2_R98A_F392V (9 events), Kixor 50 + 1% MSO): 0
Injury score from 0-9 ([3]; NitabPPX2_R98A_F392V (9 events), Kixor 100 + 1% MSO): 2
Injury score from 0-9 ([3]; NitabPPX2_R98A_F392V (9 events), Kixor 200 + 1% MSO): 2
Injury score from 0-9 ([3]; wild type Jake variety, Kixor 12.5 + 1% MSO): 9
Injury score from 0-9 ([3]; wild type Jake variety, Kixor 25 + 1% MSO): 9
Injury score from 0-9 ([3]; wild type Jake variety, Kixor 50 + 1% MSO): 9
Injury score from 0-9 ([3]; wild type Jake variety, Kixor 100 + 1% MSO): 9
Injury score from 0-9 ([3]; wild type Jake variety, Kixor 200 + 1% MSO): 9
Injury rating (1-5 point scale) ([4]; AmtuPPX2L_R128A_F420V (event 10), saflufenacil: treatment 1 150 g ai/ha, treatment 2 0, 7 DAT): 3
Injury rating (1-5 point scale) ([4]; AmtuPPX2L_R128A_F420V (event 10), saflufenacil: treatment 1 300 g ai/ha, treatment 2 300 g ai/ha, 14 DAT): 3
Injury rating (1-5 point scale) ([4]; SDS-10533 LTM382-2 AmtuPPX2L_F420L, Saflufenacil (75 gai/ha), 3 days after treatment): 2.5
Injury rating (1-5 point scale) ([4]; SDS-10533 LTM382-2 AmtuPPX2L_F420L, Saflufenacil (150 gai/ha), 3 days after treatment): 2.5
Injury rating (1-5 point scale) ([4]; SDS-10544 LTM382-2 AmtuPPX2L_F420L, Saflufenacil (75 gai/ha), 3 days after treatment): 2.5
Injury rating (1-5 point scale) ([4]; SDS-10544 LTM382-2 AmtuPPX2L_F420L, Saflufenacil (150 gai/ha), 3 days after treatment): 2.5
Injury rating (1-5 point scale) ([4]; SDS-10558 LTM382-2 AmtuPPX2L_F420L, Saflufenacil (75 gai/ha), 3 days after treatment): 2.5
Injury rating (1-5 point scale) ([4]; SDS-10558 LTM382-2 AmtuPPX2L_F420L, Saflufenacil (150 gai/ha), 3 days after treatment): 2
Injury rating (1-5 point scale) ([4]; SDS-10562 LTM377-1 AmtuPPX2L_dG210, Saflufenacil (75 gai/ha), 3 days after treatment): 4
Injury rating (1-5 point scale) ([4]; SDS-10562 LTM377-1 AmtuPPX2L_dG210, Saflufenacil (150 gai/ha), 3 days after treatment): 4
Injury rating (1-5 point scale) ([4]; SDS-10566 LTM377-1 AmtuPPX2L_dG210, Saflufenacil (75 gai/ha), 3 days after treatment): 4
Injury rating (1-5 point scale) ([4]; SDS-10566 LTM377-1 AmtuPPX2L_dG210, Saflufenacil (150 gai/ha), 3 days after treatment): 4
